According to patent US20230085307A1, “PYRIDAZINONE COMPOUND AND HERBICIDE” (NISSAN CHEMICAL CORPORATION, priority 2019, published 2023):

Experiments:
velvetleaf [1] = experiment: Test Example 4: herbicidal effect by soil treatment (Table 19, symbol M); type: in vivo, velvetleaf (Abutilon theophrasti)
Procedure, shortened: (§1)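 Seeds were sown in sterilized diluvial soil and covered with about 1.5 cm of soil. An emulsion formulation diluted with water to a predetermined herbicide amount was sprayed evenly onto the soil surface. Plants grew in a greenhouse at 25° C. to 30° C., and the effect was scored three weeks after application using criteria from an earlier test.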

wild oat = experiment: Test Example 4: herbicidal effect by soil treatment (Table 19, symbol I); type: in vivo, wild oat (Avena fatua)
Procedure, shortened: as §1

barnyard grass [2] = experiment: Test Example 4: herbicidal effect by soil treatment (Table 19, symbol H); type: in vivo, barnyard grass (Echinochloa crus-galli)
Procedure, shortened: as §1

persian speedwell = experiment: Test Example 5: herbicidal effect by foliage application, plastic box (Table 20, symbol R); type: in vivo, Persian speedwell (Veronica persica); details: foliage application, three weeks after application
Procedure, shortened: (§2)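 Plants sown in sterilized diluvial soil and grown 14 days in a greenhouse at 25° C to 30° C, then sprayed on the foliage with the compound's emulsion diluted in water to a predetermined herbicide amount. Injury to weeds and crops scored three weeks after application on a visual rating scale.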

redroot pigweed = experiment: Test Example 5: herbicidal effect by foliage application, plastic box (Table 20, symbol N); type: in vivo, redroot pigweed (Amaranthus retroflexus); details: foliage application, three weeks after application
Procedure, shortened: as §2

chickweed [3] = experiment: Test Example 4: herbicidal effect by soil treatment (Table 19, symbol P); type: in vivo, common chickweed (Stellaria media)
Procedure, shortened: as §1

Italian ryegrass [4] = experiment: Test Example 4: herbicidal effect by soil treatment (Table 19, symbol K); type: in vivo, Italian ryegrass (Lolium multiflorum)
Procedure, shortened: as §1

chickweed [5] = experiment: Test Example 5: herbicidal effect by foliage application, plastic box (Table 20, symbol P); type: in vivo, common chickweed (Stellaria media); details: foliage application, three weeks after application
Procedure, shortened: as §2

blackgrass [6] = experiment: Test Example 4: herbicidal effect by soil treatment (Table 19, symbol J); type: in vivo, blackgrass (Alopecurus myosuroides)
Procedure, shortened: as §1

blackgrass [7] = experiment: Test Example 5: herbicidal effect by foliage application, plastic box (Table 20, symbol J); type: in vivo, blackgrass (Alopecurus myosuroides); details: foliage application, three weeks after application
Procedure, shortened: as §2

green foxtail = experiment: Test Example 4: herbicidal effect by soil treatment (Table 19, symbol G); type: in vivo, green foxtail (Setaria viridis)
Procedure, shortened: as §1

lambsquarters = experiment: Test Example 4: herbicidal effect by soil treatment (Table 19, symbol O); type: in vivo, lambsquarters (Chenopodium album)
Procedure, shortened: as §1

Japanese bulrush = experiment: Test Example 2: herbicidal activity, application during weed generation under submerged conditions (Table 17, symbol B); type: in vivo, Japanese bulrush (Schoenoplectus juncoides); details: application during weed generation, submerged conditions
Procedure, shortened: (§3)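 3-wk visual-criteria score after one water-surface dose. Emulsion formulation, water-diluted to set rate; applied at 1–2 leaf stage; alluvial soil, 4 cm standing water; seeds co-sown; greenhouse 25–30° C.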

late watergrass = experiment: Test Example 2: herbicidal activity, application during weed generation under submerged conditions (Table 17, symbol A); type: in vivo, late watergrass (Echinochloa oryzicola); details: application during weed generation, submerged conditions
Procedure, shortened: as §3

velvetleaf [8] = experiment: Test Example 5: herbicidal effect by foliage application, plastic box (Table 20, symbol M); type: in vivo, velvetleaf (Abutilon theophrasti); details: foliage application, three weeks after application
Procedure, shortened: as §2

barnyard grass [9] = experiment: Test Example 3: herbicidal effect by foliage application, Wagner pot (Table 18, symbol H); type: in vivo, barnyard grass (Echinochloa crus-galli)
Procedure, shortened: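 Plants were sown in alluvial soil held under 0.1–0.5 cm standing water and grown 14 days in a greenhouse at 25–30 °C. An emulsifiable formulation, water-diluted to the set dose, was then sprayed onto the foliage, and effects were scored three weeks later using previously defined criteria.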

Italian ryegrass [10] = experiment: Test Example 5: herbicidal effect by foliage application, plastic box (Table 20, symbol K); type: in vivo, Italian ryegrass (Lolium multiflorum); details: foliage application, three weeks after application
Procedure, shortened: as §2

[11] = amount of applied herbicide 214 g/ha
[12] = amount of applied herbicide 320 g/ha

## COc1ccc2c(-c3c(O)c(C)nn(C)c3=O)c(-c3ccccc3OC)sc2c1 [Compound No. 3-065, 5-hydroxy-4-(6-methoxy-2-(2-methoxyphenyl)benzo[b]thiophen-3-yl)-2,6-dimethylpyridazin-3(2H)-one]
Velvetleaf [1]; [11]
  M: velvetleaf, herbicidal effect grade: 0 (Herbicidal rate of 5% or less (almost no effect))
Wild oat; [11]
  I: wild oat, herbicidal effect grade: 2 (Herbicidal rate of 20% or more and less than 40%)
Barnyard grass [2]; [11]
  H: barnyard grass, herbicidal effect grade: 5 (Herbicidal rate of 90% or more (almost completely withered))
Persian speedwell; 214 g/ha
  R: persian speedwell, herbicidal effect grade: 5 (Herbicidal rate of 90% or more (almost completely withered))
Redroot pigweed; 214 g/ha
  N: redroot pigweed, herbicidal effect grade: 3 (Herbicidal rate of 40% or more and less than 70%)
Chickweed [3]; [11]
  P: chickweed, herbicidal effect grade: 5 (Herbicidal rate of 90% or more (almost completely withered))
Italian ryegrass [4]; [11]
  K: Italian ryegrass, herbicidal effect grade: 3 (Herbicidal rate of 40% or more and less than 70%)
Chickweed [5]; 214 g/ha
  P: chickweed, herbicidal effect grade: 5 (Herbicidal rate of 90% or more (almost completely withered))
Blackgrass [6]; [11]
  J: blackgrass, herbicidal effect grade: 3 (Herbicidal rate of 40% or more and less than 70%)
Blackgrass [7]; 214 g/ha
  J: blackgrass, herbicidal effect grade: 5 (Herbicidal rate of 90% or more (almost completely withered))
Green foxtail; [11]
  G: green foxtail, herbicidal effect grade: 5 (Herbicidal rate of 90% or more (almost completely withered))
lambsquarters; [11]
  O: lambsquarters, herbicidal effect grade: 4 (Herbicidal rate of 70% or more and less than 90%)
Japanese bulrush; AAH 214 g/ha
  herbicidal effect rating, B: Japanese bulrush: 1 (Herbicidal rate of 5% or more and less than 20%)
Late watergrass; AAH 214 g/ha
  herbicidal effect rating, A: late watergrass: 0 (Herbicidal rate of 5% or less (almost no effect))
Velvetleaf [8]; 214 g/ha
  M: velvetleaf, herbicidal effect grade: 5 (Herbicidal rate of 90% or more (almost completely withered))
Barnyard grass [9]; 214 g/ha
  herbicidal effect on barnyard grass (H): 5 (Herbicidal rate of 90% or more (almost completely withered))
Italian ryegrass [10]; 214 g/ha
  K: Italian ryegrass, herbicidal effect grade: 4 (Herbicidal rate of 70% or more and less than 90%)

## COc1ccc2c(-c3c(O)c(Cl)nn(C)c3=O)c(-c3ccccc3OC)sc2c1 [Compound No. 3-088, 6-chloro-5-hydroxy-4-(6-methoxy-2-(2-methoxyphenyl)benzo[b]thiophen-3-yl)-2-methylpyridazin-3(2H)-one]
Velvetleaf [1]; [12]
  M: velvetleaf, herbicidal effect grade: 5 (Herbicidal rate of 90% or more (almost completely withered))
Wild oat; [12]
  I: wild oat, herbicidal effect grade: 0 (Herbicidal rate of 5% or less (almost no effect))
Barnyard grass [2]; [12]
  H: barnyard grass, herbicidal effect grade: 5 (Herbicidal rate of 90% or more (almost completely withered))
Persian speedwell; 320 g/ha
  R: persian speedwell, herbicidal effect grade: 5 (Herbicidal rate of 90% or more (almost completely withered))
Redroot pigweed; 320 g/ha
  N: redroot pigweed, herbicidal effect grade: 4 (Herbicidal rate of 70% or more and less than 90%)
Chickweed [3]; [12]
  P: chickweed, herbicidal effect grade: 5 (Herbicidal rate of 90% or more (almost completely withered))
Italian ryegrass [4]; [12]
  K: Italian ryegrass, herbicidal effect grade: 0 (Herbicidal rate of 5% or less (almost no effect))
Chickweed [5]; 320 g/ha
  P: chickweed, herbicidal effect grade: 5 (Herbicidal rate of 90% or more (almost completely withered))
Blackgrass [6]; [12]
  J: blackgrass, herbicidal effect grade: 0 (Herbicidal rate of 5% or less (almost no effect))
Blackgrass [7]; 320 g/ha
  J: blackgrass, herbicidal effect grade: 3 (Herbicidal rate of 40% or more and less than 70%)
Green foxtail; [12]
  G: green foxtail, herbicidal effect grade: 5 (Herbicidal rate of 90% or more (almost completely withered))
lambsquarters; [12]
  O: lambsquarters, herbicidal effect grade: 5 (Herbicidal rate of 90% or more (almost completely withered))
Japanese bulrush; AAH 320 g/ha
  herbicidal effect rating, B: Japanese bulrush: 3 (Herbicidal rate of 40% or more and less than 70%)
Late watergrass; AAH 320 g/ha
  herbicidal effect rating, A: late watergrass: 3 (Herbicidal rate of 40% or more and less than 70%)
Velvetleaf [8]; 320 g/ha
  M: velvetleaf, herbicidal effect grade: 4 (Herbicidal rate of 70% or more and less than 90%)
Barnyard grass [9]; 320 g/ha
  herbicidal effect on barnyard grass (H): 5 (Herbicidal rate of 90% or more (almost completely withered))
Italian ryegrass [10]; 320 g/ha
  K: Italian ryegrass, herbicidal effect grade: 0 (Herbicidal rate of 5% or less (almost no effect))

## COc1ccccc1-c1sc2cc(OCC(F)(F)F)ccc2c1-c1c(O)c(C)nn(C)c1=O [Compound No. 3-116, 5-hydroxy-4-(2-(2-methoxyphenyl)-6-(2,2,2-trifluoroethoxy)benzo[b]thiophen-3-yl)-2,6-di methylpyridazin-3 (2H)-one]
Velvetleaf [1]; [12]
  M: velvetleaf, herbicidal effect grade: 4 (Herbicidal rate of 70% or more and less than 90%)
Wild oat; [12]
  I: wild oat, herbicidal effect grade: 3 (Herbicidal rate of 40% or more and less than 70%)
Barnyard grass [2]; [12]
  H: barnyard grass, herbicidal effect grade: 5 (Herbicidal rate of 90% or more (almost completely withered))
Persian speedwell; 320 g/ha
  R: persian speedwell, herbicidal effect grade: 5 (Herbicidal rate of 90% or more (almost completely withered))
Redroot pigweed; 320 g/ha
  N: redroot pigweed, herbicidal effect grade: 5 (Herbicidal rate of 90% or more (almost completely withered))
Chickweed [3]; [12]
  P: chickweed, herbicidal effect grade: 4 (Herbicidal rate of 70% or more and less than 90%)
Italian ryegrass [4]; [12]
  K: Italian ryegrass, herbicidal effect grade: 5 (Herbicidal rate of 90% or more (almost completely withered))
Chickweed [5]; 320 g/ha
  P: chickweed, herbicidal effect grade: 5 (Herbicidal rate of 90% or more (almost completely withered))
Blackgrass [6]; [12]
  J: blackgrass, herbicidal effect grade: 4 (Herbicidal rate of 70% or more and less than 90%)
Blackgrass [7]; 320 g/ha
  J: blackgrass, herbicidal effect grade: 5 (Herbicidal rate of 90% or more (almost completely withered))
Green foxtail; [12]
  G: green foxtail, herbicidal effect grade: 5 (Herbicidal rate of 90% or more (almost completely withered))
lambsquarters; [12]
  O: lambsquarters, herbicidal effect grade: 5 (Herbicidal rate of 90% or more (almost completely withered))
Japanese bulrush; AAH 320 g/ha
  herbicidal effect rating, B: Japanese bulrush: 3 (Herbicidal rate of 40% or more and less than 70%)
Late watergrass; AAH 320 g/ha
  herbicidal effect rating, A: late watergrass: 4 (Herbicidal rate of 70% or more and less than 90%)
Velvetleaf [8]; 320 g/ha
  M: velvetleaf, herbicidal effect grade: 5 (Herbicidal rate of 90% or more (almost completely withered))
Barnyard grass [9]; 320 g/ha
  herbicidal effect on barnyard grass (H): 5 (Herbicidal rate of 90% or more (almost completely withered))
Italian ryegrass [10]; 320 g/ha
  K: Italian ryegrass, herbicidal effect grade: 5 (Herbicidal rate of 90% or more (almost completely withered))
